Experiment [1] deals with AUR-B (Homo sapiens (Human), UniProt Q96GD4). In words: KinaseProfiler radiometric assay (14-835KP). It counts as biochemical. Conditions: mean of at least two independent experiments. The source says: (§1) In another aspect, disclosed is a method of inhibiting citron kinase in a sample, comprising contacting the sample with a compound described herein (e.g., a compound of formula (I) or a pharmaceutically acceptable salt thereof), or a pharmaceutical composition described herein (e.g., a pharmaceutical composition comprising a compound of formula (I) or a pharmaceutically acceptable salt thereof), in an amount effective to inhibit citron kinase. In some embodiments, the step of contacting the sample with the compound comprises administering the compound to a subject (e.g., a subject) suffering from cancer. Methods of determining kinase inhibition are well known in the art. For example, kinase activity of an enzyme and the inhibitory capacity of a test compound can be determined by measuring enzyme specific phosphorylation of a substrate. Commercial assays and kits can be employed. For example, kinase inhibition can be determined using a radiometric binding assay, such as using KinaseProfiler™ technology (Eurofins Discovery). This assay method directly detects product formation without the use of modified substrates or coupling enzymes. Test compounds are incubated with kinase, substrate, required cofactors and radioisotope labeled ATP. Following incubation, unreacted radioactive ATP is removed by washing and incorporation of the radiolabeled phosphate into the kinase substrate is assayed to detect phosphoryltransferase activity, which is directly proportional to the amount of phosphorylated substrate. Inhibition of the kinase by a kinase inhibitor prevents phosphorylation of the substrate and thereby limits the incorporation of radiolabeled phosphate. Such an assay is compatible with a microwell assay format, allowing simultaneous determination of IC50 of multiple compounds.
(§2) The effect of various compounds on the inhibition of other kinases has also been determined. Table 2 reports measured IC50 values; value units are nanomolar inhibition.

The target of experiment [2] is ROCK-1 (Homo sapiens (Human), UniProt Q13464). In words: KinaseProfiler radiometric assay (14-601KP). It counts as biochemical. Conditions: mean of at least two independent experiments.
Description: as §1, §2

Experiment [3] deals with ROCK-2 (Homo sapiens (Human), UniProt O75116). In words: KinaseProfiler radiometric assay (14-451KP). The conditions noted are these: mean of at least two independent experiments. It counts as biochemical.
Description: as §1, §2

The target of experiment [4] is T1, Citron kinase (Homo sapiens (Human), UniProt O14578). The experiment is described as follows: Radiometric citron kinase assay (Eurofins Cat #16-040KP). It counts as biochemical. In a few lines: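 Radiometric KinaseProfiler format: test compound incubated with kinase, substrate, cofactors and radiolabelled ATP; unreacted ATP washed away and radiolabelled phosphate incorporated into substrate measured. IC50 derived from inhibition of phosphorylation. Values are means of at least two independent assays.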

Experiment [5] addresses PKAα (Homo sapiens (Human), UniProt P17612). In words: KinaseProfiler radiometric assay (14-440KP). It counts as biochemical. Conditions: mean of at least two independent experiments.
Description: as §1, §2

Experiment [6] concerns the target IKKβ (Homo sapiens (Human), UniProt O14920). The experiment is described as follows: KinaseProfiler radiometric assay (14-485KP). It counts as biochemical. The conditions noted are these: mean of at least two independent experiments.
Description: as §1, §2

In experiment [7] the target is T1, Citron kinase. In words: TR-FRET citron kinase assay (Eurofins Cat #2628). It counts as biochemical. The conditions noted are these: mean of at least two independent assays; read-out: TR-FRET CitK IC50. The source says: Compounds were screened for biochemical kinase activity (Eurofins Discovery, France) using one of two assays. […] All values in Table 1 are the mean of at least two independent assays.
A general note: Time-resolved FRET reads energy transfer from a long-lived donor to a nearby acceptor.

Experiment [8] addresses TRK-B (Homo sapiens (Human), UniProt Q16620). In words: KinaseProfiler radiometric assay (14-507KP). It counts as biochemical. Conditions: mean of at least two independent experiments.
Description: as §1, §2

The target of experiment [9] is NanoLuc-CITK (full-length human CITK) (Homo sapiens (Human), UniProt O14578). In words: NanoBRET intracellular target engagement assay. It counts as cell-based. As to the method:
In-cell Kd values were evaluated with a NanoBRET Target Engagement Assay essentially as recommended by the manufacturer (Promega Corporation—for details see https://www.promega.com/resources/technologies/nanoluc-luciferase-enzyme/cellular-target-engagement/).
HEK293T cells were transfected with 5.0 μg/mL sterile NanoLuc-CITK DNA, 5.0 μg/mL Transfection Carrier DNA, and 30 μL/mL FugeneHD® (Promega) in Opti-Mem™ (Thermo) media at a cell density of 250,000 cells/mL. […] 5 μL of the 25× Tracer K10 solution was added to each well. Next, designated inhibitors were prepared from powder as 10 mM DMSO stocks and then further diluted to 10× the final assay concentration in Opti-Mem™. 12-pt dose-response curves were prepared by 3×-serial dilution. […] A 3× Complete Substrate+Inhibitor solution, containing 6 mL of Opti-Mem™, 36 μL of NanoBRET Nano-Glo Substrate, and 12 μL Extracellular NanoLuc Inhibitor was freshly prepared for each plate. 50 μL of the 3× Complete Substrate+Inhibitor solution was added to all wells and the plate was incubated for 2 min with 500 RPM shaking. The bottom of the plates were covered with black plate seals and then measured on a Cytation 5 plate reader (Biotek) with a NanoBRET Filter Cube (Biotek; 450/50 emission & 610LP emission). Background corrected BRET ratios (in mBU) were calculated in Excel and IC50's were subsequently extracted using four-parameter non-linear regression in GraphPad Prism 8.
A general note: BRET reads energy transfer from a luciferase to a nearby fluorophore.

The target in experiment [10] is AKT-1 (Homo sapiens (Human), UniProt P31749). In words: KinaseProfiler radiometric assay (14-276KP). It counts as biochemical. The conditions noted are these: mean of at least two independent experiments.
Description: as §1, §2

Experiment [11] concerns VCaP cells. The experiment is described as follows: Androgen-induced citron kinase expression, western blotting. Conditions: low doses of androgen, 48 hours. It counts as cell-based. The protocol: (§3) FIG. 1A: LNCaP (top panel) and VCaP cells (bottom panel) were treated with increasing doses of the synthetic androgen R1881 for 48 hours. CIT and j-actin expression were analyzed by western blotting. FIG. 1B: LNCaP (left panel) and VCaP cells (right panel) were treated with increasing doses of the natural androgen dihydrotestosterone (DHT) and analyzed as for FIG. 1A.

Experiment [12] relates to LNCaP cells. The description is as above. It counts as cell-based. Conditions: low doses of androgen, 48 hours. The protocol:
as §3

[13] abbreviates: mean of at least two independent assays, read-out: Radiometric CitK IC50.
Setting [14] is: HEK293T cells transfected with NanoLuc-CITK, Tracer K10 1 μM, 2 hours.

Sequence of NanoLuc-CITK (full-length human CITK) (O14578 other isoform, or with tags, fused parts or gaps): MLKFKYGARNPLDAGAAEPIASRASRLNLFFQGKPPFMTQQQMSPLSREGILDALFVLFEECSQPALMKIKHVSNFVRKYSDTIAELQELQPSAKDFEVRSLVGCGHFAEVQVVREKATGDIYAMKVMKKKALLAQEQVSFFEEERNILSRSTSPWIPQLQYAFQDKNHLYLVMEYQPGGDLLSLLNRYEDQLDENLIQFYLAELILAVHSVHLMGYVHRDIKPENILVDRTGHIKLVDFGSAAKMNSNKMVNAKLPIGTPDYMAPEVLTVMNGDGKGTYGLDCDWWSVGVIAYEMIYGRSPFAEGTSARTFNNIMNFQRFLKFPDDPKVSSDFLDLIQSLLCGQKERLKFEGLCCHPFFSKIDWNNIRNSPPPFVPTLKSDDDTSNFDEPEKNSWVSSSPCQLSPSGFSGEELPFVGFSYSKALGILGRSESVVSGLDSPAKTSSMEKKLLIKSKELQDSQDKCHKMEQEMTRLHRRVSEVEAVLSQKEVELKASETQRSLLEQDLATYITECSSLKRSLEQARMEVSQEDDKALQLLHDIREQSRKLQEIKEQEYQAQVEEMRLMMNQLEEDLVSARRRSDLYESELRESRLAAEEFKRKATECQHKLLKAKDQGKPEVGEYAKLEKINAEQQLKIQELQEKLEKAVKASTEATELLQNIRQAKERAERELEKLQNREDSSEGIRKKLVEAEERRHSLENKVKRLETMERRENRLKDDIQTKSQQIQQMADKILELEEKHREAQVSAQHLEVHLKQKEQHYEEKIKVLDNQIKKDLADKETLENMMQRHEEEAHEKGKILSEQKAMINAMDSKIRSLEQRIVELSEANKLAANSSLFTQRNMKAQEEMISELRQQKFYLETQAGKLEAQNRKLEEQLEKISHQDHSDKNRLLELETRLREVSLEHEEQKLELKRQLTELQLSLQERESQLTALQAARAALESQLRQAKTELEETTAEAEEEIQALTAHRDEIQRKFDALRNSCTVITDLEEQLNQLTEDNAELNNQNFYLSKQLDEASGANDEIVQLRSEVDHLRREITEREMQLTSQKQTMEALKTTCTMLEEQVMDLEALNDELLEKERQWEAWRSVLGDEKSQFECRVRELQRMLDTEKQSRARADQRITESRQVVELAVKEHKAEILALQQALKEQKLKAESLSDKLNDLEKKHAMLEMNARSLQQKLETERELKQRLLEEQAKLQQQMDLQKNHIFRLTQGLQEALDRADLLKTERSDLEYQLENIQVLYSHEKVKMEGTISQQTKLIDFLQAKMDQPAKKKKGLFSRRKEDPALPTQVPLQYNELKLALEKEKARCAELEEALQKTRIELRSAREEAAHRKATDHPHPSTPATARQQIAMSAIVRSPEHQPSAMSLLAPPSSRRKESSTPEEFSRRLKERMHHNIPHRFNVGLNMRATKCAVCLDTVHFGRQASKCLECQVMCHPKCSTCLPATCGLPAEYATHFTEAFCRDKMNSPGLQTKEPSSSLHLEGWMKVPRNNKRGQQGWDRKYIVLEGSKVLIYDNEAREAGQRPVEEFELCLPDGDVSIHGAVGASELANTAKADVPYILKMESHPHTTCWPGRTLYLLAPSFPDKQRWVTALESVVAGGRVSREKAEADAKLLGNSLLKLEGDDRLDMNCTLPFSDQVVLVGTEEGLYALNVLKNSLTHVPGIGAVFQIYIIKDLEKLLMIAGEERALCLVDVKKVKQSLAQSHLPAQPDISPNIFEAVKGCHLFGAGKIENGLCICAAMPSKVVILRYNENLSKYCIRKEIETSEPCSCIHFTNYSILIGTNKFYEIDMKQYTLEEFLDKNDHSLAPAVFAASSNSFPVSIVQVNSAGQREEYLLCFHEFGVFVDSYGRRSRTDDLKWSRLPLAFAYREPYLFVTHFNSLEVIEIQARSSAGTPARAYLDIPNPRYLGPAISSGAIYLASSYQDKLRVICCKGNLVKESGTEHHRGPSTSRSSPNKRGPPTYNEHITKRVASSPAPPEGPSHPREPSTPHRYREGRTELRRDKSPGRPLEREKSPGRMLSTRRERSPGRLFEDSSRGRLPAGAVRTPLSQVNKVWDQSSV
Sequence of TRK-B (Q16620 32-822): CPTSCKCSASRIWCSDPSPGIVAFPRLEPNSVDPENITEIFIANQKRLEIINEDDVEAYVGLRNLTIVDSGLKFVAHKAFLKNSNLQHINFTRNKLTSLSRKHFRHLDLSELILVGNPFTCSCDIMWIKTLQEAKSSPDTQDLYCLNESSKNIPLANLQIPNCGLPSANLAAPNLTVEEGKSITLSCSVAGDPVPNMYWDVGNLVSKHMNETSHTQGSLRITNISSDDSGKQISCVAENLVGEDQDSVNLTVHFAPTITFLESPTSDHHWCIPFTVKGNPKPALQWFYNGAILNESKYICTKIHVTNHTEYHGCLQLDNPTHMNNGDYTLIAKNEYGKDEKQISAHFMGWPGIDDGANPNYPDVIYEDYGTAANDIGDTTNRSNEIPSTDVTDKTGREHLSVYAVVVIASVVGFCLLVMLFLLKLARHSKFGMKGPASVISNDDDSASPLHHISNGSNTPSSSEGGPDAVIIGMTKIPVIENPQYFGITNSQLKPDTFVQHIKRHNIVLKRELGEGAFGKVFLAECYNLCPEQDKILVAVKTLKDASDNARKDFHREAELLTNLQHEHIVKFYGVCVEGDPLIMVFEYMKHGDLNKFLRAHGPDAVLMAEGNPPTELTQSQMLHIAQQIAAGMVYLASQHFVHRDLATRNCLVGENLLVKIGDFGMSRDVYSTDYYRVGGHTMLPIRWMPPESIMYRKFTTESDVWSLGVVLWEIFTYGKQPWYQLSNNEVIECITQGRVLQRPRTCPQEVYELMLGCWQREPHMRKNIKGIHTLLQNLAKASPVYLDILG
Sequence of ROCK-1 (Q13464 whole entry): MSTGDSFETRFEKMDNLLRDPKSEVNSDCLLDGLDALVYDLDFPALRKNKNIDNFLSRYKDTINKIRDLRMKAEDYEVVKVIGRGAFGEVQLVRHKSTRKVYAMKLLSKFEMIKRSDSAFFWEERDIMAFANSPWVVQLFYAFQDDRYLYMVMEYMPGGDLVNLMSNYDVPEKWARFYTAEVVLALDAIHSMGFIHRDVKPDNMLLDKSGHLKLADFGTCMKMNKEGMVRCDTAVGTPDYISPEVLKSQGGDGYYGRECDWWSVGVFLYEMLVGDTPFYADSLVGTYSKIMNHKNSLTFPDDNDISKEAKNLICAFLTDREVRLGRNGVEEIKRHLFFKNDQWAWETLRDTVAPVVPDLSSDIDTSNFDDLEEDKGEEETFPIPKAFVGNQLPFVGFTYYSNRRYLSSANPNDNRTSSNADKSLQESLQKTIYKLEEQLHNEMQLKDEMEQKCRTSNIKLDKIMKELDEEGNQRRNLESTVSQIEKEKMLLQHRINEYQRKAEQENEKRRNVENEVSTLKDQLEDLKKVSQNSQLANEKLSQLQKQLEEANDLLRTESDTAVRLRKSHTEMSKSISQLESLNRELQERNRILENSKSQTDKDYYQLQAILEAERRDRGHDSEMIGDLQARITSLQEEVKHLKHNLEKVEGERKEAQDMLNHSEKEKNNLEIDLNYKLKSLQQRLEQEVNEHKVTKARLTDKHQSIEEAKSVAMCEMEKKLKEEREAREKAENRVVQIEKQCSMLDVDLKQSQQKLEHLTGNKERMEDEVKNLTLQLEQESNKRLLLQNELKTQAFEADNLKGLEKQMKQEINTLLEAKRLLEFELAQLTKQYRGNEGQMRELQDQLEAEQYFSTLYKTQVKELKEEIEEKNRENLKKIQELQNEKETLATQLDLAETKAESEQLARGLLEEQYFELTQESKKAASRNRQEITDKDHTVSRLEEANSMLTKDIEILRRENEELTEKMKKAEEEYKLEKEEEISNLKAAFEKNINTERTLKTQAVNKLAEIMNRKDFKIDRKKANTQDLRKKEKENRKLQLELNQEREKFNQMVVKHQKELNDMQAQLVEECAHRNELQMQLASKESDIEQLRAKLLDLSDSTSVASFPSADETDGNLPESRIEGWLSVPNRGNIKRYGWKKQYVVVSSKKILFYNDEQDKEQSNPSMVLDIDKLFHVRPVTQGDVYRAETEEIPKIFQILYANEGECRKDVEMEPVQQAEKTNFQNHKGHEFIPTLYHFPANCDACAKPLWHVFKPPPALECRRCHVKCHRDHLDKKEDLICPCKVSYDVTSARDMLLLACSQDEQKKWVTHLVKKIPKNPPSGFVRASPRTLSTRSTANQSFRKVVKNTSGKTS
Sequence of IKKβ (O14920 whole entry): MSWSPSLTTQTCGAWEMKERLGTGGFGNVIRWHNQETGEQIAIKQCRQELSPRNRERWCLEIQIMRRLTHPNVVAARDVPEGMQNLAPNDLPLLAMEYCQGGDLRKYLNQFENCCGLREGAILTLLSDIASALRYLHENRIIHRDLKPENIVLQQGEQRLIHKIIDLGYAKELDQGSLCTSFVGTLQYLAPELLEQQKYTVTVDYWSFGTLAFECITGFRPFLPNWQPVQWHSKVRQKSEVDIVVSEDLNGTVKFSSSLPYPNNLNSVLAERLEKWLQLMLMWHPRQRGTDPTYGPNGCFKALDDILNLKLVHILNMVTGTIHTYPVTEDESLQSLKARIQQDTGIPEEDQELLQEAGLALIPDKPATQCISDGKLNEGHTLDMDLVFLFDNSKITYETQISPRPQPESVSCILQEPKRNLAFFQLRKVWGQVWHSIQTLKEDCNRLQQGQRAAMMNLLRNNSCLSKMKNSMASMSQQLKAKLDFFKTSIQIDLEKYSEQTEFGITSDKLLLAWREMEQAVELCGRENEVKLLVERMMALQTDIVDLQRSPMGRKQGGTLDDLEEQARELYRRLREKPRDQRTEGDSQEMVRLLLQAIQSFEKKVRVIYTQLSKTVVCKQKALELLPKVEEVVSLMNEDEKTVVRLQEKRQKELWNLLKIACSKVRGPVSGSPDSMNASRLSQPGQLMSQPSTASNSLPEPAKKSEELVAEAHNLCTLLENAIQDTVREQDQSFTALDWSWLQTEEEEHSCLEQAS

For `CC(C)C[C@@H](N)C(=O)Nc1ccc(-c2ccnc3[nH]ccc23)cc1` [Compound F-9, (2R)-2-Amino-4-methyl-N-[4-(1H-pyrrolo[2,3-b]pyridin-4-yl)phenyl]pentanamide], the IC50 (usually the concentration needed to halve the response being measured) in experiment [1] turned out to be 230 nM; in [2] it was 230 nM; in experiment [3], 18 nM; in experiment [4] (setting [13]) it was 12.5 nM; in [5], 7 nM; in experiment [6], 111 nM. Also, the IC50 in experiment [7] is 4.9 nM; in [8] it was greater than 3000 nM; in [9] (setting [14]), 67 nM; in [10], 761 nM. The Kd (commonly the concentration at which binding is half-saturated) in experiment [9] was 13 nM.

With `Cc1cc2c(-c3ccc(NC(=O)[C@@H](N)[C@H](O)C(C)C)cc3C)ccnc2[nH]1` [Compound F-161, (2S,3R)-2-Amino-3-hydroxy-4-methyl-N-[3-methyl-4-(2-methyl-1H-pyrrolo[2,3-b]pyridin-4-yl)phenyl]pentanamide], the IC50 was 19 nM in [4] (setting [13]) and 23 nM in experiment [9] (setting [14]). The same compound displayed a dissociation constant (Kd) in experiment [9] of 4.3 nM.

In the case of `CC(C)(C)[C@@H](N)C(=O)Nc1ccc(-c2ccnc3[nH]ccc23)cc1` [Compound F-13, (2R)-2-Amino-3,3-dimethyl-N-[4-(1H-pyrrolo[2,3-b]pyridin-4-yl)phenyl]butanamide], the figures for the IC50 in [3], in [5] and in experiment [6] were 64 nM, 1 nM and 234 nM, respectively.

As to `N[C@@H](Cc1ccccc1)C(=O)Nc1ccc(-c2ccnc3[nH]ccc23)cc1` [Compound F-32, (S)-N-(4-(1H-pyrrolo[2,3-b]pyridin-4-yl)phenyl)-2-amino-3-phenylpropanamide], the IC50 in [1] amounted to 156 nM; in [2], 119 nM; in [5] it was 7 nM; in [8] it was 469 nM; in experiment [10], 1100 nM.

As to `Cc1cc(NC(=O)[C@H](N)CC(C)C)ccc1-c1ccnc2[nH]ccc12` [Compound F-58, (2R)-2-Amino-4-methyl-N-[3-methyl-4-(1H-pyrrolo[2,3-b]pyridin-4-yl)phenyl]pentanamide], the IC50 is 104 nM in experiment [3], 82 nM in experiment [5] and greater than 3000 nM in [6].

Turning to `Cc1cc2c(-c3ccc(NC(=O)[C@H](N)CC(C)(C)C)cc3C)cncc2[nH]1` [6-Azaindole Control, reference compound], the half-inhibitory concentration (IC50) in experiment [4] (biochemical assay described in Example 3, read-out: IC50) is greater than 3000 nM. The “NanoBRET IC50 (nM)” value in experiment [9] (setting [14]) is listed as “No binding”. Also, the “KD (nM)*” value in experiment [9] (in-cell KD from IC50 by Cheng-Prussoff, [Tracer K10] = 1 μM, KD Tracer K10 = 0.23 μM) is given as “No binding”.

As for `Cc1c[nH]c2nccc(-c3ccc(NC(=O)C(N)Cc4ccccc4)cc3)c12` (centres unmarked) [Compound F-135, 2-Amino-N-[4-(3-methyl-1H-pyrrolo[2,3-b]pyridin-4-yl)phenyl]-3-phenyl-propanamide], the IC50 in [7] was found to be 392 nM.

Regarding `COc1cc(-c2ccnc3[nH]ccc23)ccc1NC(=O)[C@H](N)CC(C)C` [Compound F-77, (2R)-2-Amino-N-[2-methoxy-4-(1H-pyrrolo[2,3-b]pyridin-4-yl)phenyl]-4-methyl-pentanamide], the IC50 in [3] is 12 nM; in experiment [5], 26 nM; in [6], 829 nM.

Turning to `CN[C@H](CC(C)C)C(=O)Nc1ccc(-c2ccnc3[nH]ccc23)cc1` [Compound F-41, (2R)-4-Methyl-2-(methylamino)-N-[4-(1H-pyrrolo[2,3-b]pyridin-4-yl)phenyl]pentanamide], the values for the IC50 in experiment [3], in experiment [5] and in [6] were 11 nM, 6 nM and 345 nM, respectively.

For the compound `NC(C(=O)Nc1ccc(-c2ccnc3[nH]ccc23)cc1)C1CC1` (centres unmarked) [Compound F-18, 2-Amino-2-cyclopropyl-N-[4-(1H-pyrrolo[2,3-b]pyridine-4-yl)phenyl]acetamide], the IC50 in experiment [7] was found to be 120 nM.

Consider `C[C@]1(O)CC[C@H]2[C@@H]3CCC4=CC(=O)CCC4=C3C=C[C@@]21C` [Compound R1881], for which the citron kinase expression entry in [11] and in experiment [12] was “significant increase” throughout.

Turning to `Cc1cc(NC(=O)[C@H](N)C(C)(C)C)ccc1-c1ccnc2[nH]ccc12` [Compound F-59, (2R)-2-Amino-3,3-dimethyl-N-[3-methyl-4-(1H-pyrrolo[2,3-b]pyridin-4-yl)phenyl]butanamide], the IC50 is 546 nM in experiment [3], 49.1 nM in [4] (setting [13]), 319 nM in experiment [5] and greater than 3000 nM in [6].

As to `Cc1cc2c(-c3ccc(NC(=O)[C@H](N)[C@@H](O)C(C)C)cc3C)ccnc2[nH]1` [Compound F-162, (2R,3S)-2-Amino-3-hydroxy-4-methyl-N-[3-methyl-4-(2-methyl-1H-pyrrolo[2,3-b]pyridin-4-yl)phenyl]pentanamide], the concentration for half-maximal inhibition (IC50) amounted to 5 nM in experiment [4] (setting [13]) and 10 nM in [9] (setting [14]). This compound also yielded a Kd in [9] of 1.9 nM.

Turning to `N[C@H](Cc1ccccc1)C(=O)Nc1ccc(-c2ccnc3[nH]ccc23)cc1` [Compound F-33, (R)-N-(4-(1H-pyrrolo[2,3-b]pyridin-4-yl)phenyl)-2-amino-3-phenylpropanamide], the IC50 in experiment [1] is 104 nM; in experiment [2], 107 nM; in [5] it was 3 nM; in experiment [8], 332 nM; in experiment [10], 436 nM.

In the case of `CC(C)C[C@@H](N)C(=O)Nc1ccc(-c2ccnc3[nH]ccc23)cc1F` [Compound F-70, (2R)-2-Amino-N-[2-fluoro-4-(1H-pyrrolo[2,3-b]pyridin-4-yl)phenyl]-4-methyl-Pentanamide], the IC50 in experiment [3] turned out to be 49 nM; in experiment [4] (setting [13]), 36.9 nM; in experiment [5], 43 nM; in experiment [6] it was 2300 nM.

Consider `CC(C)C[C@H](N)C(=O)Nc1ccc(-c2ccnc3[nH]ccc23)cc1` [Compound F-8, (2S)-2-Amino-4-methyl-N-[4-(1H-pyrrolo[2,3-b]pyridin-4-yl)phenyl]pentanamide], for which the figures for the IC50 in [4] (setting [13]) and in [7] were 54.1 nM and 29.9 nM, respectively.

`Cc1cc2c(-c3ccc(NC(=O)[C@H](N)CC(C)C)cc3)ccnc2[nH]1` [Compound F-48, (2R)-2-Amino-4-methyl-N-[4-[2-methyl-1H-pyrrolo[2,3-b]pyridin-4-yl]phenyl]pentanamide]: the IC50 is greater than 3000 nM in experiment [3], greater than 3000 nM in experiment [5] and 122 nM in experiment [6].

These data come from patent US20250243196A1, “CITRON KINASE INHIBITORS” (The Cleveland Clinic Foundation, priority 2021, published 2025).
